Holding throughout (type): in vivo
The subject of experiment [1] is Erysiphe graminis f. sp. tritici. The experiment can be described thus: Test A: preventive spray on wheat seedlings, wheat powdery mildew, disease rating. The following applies: wheat seedlings sprayed to run-off, inoculated the following day with Erysiphe graminis f. sp. tritici, rated after 7 days at 20° C.; test concentration not given. The text has this: General protocol for preparing test suspensions: Test compounds were first dissolved in acetone in an amount equal to 3% of the final volume and then suspended at the desired concentration (in ppm) in acetone and purified water (50/50 mix) containing 250 ppm of the surfactant Trem® 014 (polyhydric alcohol esters). The resulting test suspensions were then used in the following tests. Spraying a 200 ppm test suspension to the point of run-off on the test plants was the equivalent of a rate of 500 g/ha. The test suspension was sprayed to the point of run-off on wheat seedlings. The following day the seedlings were inoculated with a spore dust of Erysiphe graminis f. sp. tritici, (the causal agent of wheat powdery mildew) and incubated in a growth chamber at 20° C. for 7 days, after which disease ratings were made. Results for Tests A-C are given in Table A. In the table, a rating of 100 indicates 100% disease control and a rating of 0 indicates no disease control (relative to the controls). A dash (-) indicates no test results.

The next experiment deals with Puccinia recondita. The experiment can be described thus: Test B: preventive spray on wheat seedlings, wheat leaf rust, disease rating. The following applies: wheat seedlings sprayed to run-off, inoculated the following day with Puccinia recondita, 24 h saturated atmosphere then 6 days at 20° C.; test concentration not given. The text has this: (§1) General protocol for preparing test suspensions: Test compounds were first dissolved in acetone in an amount equal to 3% of the final volume and then suspended at the desired concentration (in ppm) in acetone and purified water (50/50 mix) containing 250 ppm of the surfactant Trem® 014 (polyhydric alcohol esters). The resulting test suspensions were then used in the following tests. Spraying a 200 ppm test suspension to the point of run-off on the test plants was the equivalent of a rate of 500 g/ha. The test suspension was sprayed to the point of run-off on wheat seedlings. The following day the seedlings were inoculated with a spore suspension of Puccinia recondita (the causal agent of wheat leaf rust) and incubated in a saturated atmosphere at 20° C. for 24 h, and then moved to a growth chamber at 20° C. for 6 days, after which disease ratings were made. Results for Tests A-C are given in Table A. In the table, a rating of 100 indicates 100% disease control and a rating of 0 indicates no disease control (relative to the controls). A dash (-) indicates no test results.

Another experiment relates to Septoria nodorum. The experiment can be described thus: Test C: preventive spray on wheat seedlings, Septoria glume blotch, disease rating. The following applies: wheat seedlings sprayed to run-off, inoculated the following day with Septoria nodorum, 48 h saturated atmosphere then 9 days at 20° C.; test concentration not given.
Description: as §1, with “Septoria nodorum” for “Puccinia recondita”, “Septoria glume blotch)” for “wheat leaf rust)”, “48” for “24”, “9” for “6”

For the compound `C=C(COc1cc(C)c(N=CN(C)C)cc1C)C[Si](C)(C)C` [Compound 38], the “Test A disease control rating (100 = 100% disease control, 0 = no disease control relative to the controls)” value in experiment [1] was 96%. In addition, in the experiment with Puccinia recondita, the “Test B disease control rating (100 = 100% disease control, 0 = no disease control relative to the controls)” value was 100%. Further, in the experiment with Septoria nodorum, the “Test C disease control rating (100 = 100% disease control, 0 = no disease control relative to the controls)” value amounted to 20%.
For `C=CCN(C)C(=S)Nc1cc(Cl)c(OCCC[Si](C)(C)C)cc1C` [compound 85], in that order: 100%, 99% and 100%.
For `Cc1c(NC(=S)N(C)C)cc(Cl)c(OCCCC(C)C)c1Cl` [compound 119], in that order: 0%, 64% and 78%.
The matching figures for `CCN(C(=S)Nc1cc(Cl)c(OCCCC(C)C)cc1Cl)C(C)C` [compound 127]: 0%, 99% and 100%.
In the case of `CC(=Nc1cc(C)c(OC(C)CCC(C)C)cc1C)N(C)C` (stereo not drawn) [compound 102], in experiment [1], the “Test A disease control rating (100 = 100% disease control, 0 = no disease control relative to the controls)” value came out at 21%. Also, the “Test B disease control rating (100 = 100% disease control, 0 = no disease control relative to the controls)” value with Puccinia recondita was 95%. Moreover, in the experiment with Septoria nodorum, the “Test C disease control rating (100 = 100% disease control, 0 = no disease control relative to the controls)” value was determined as 89%.
The matching figures for `C=CCN(C)C=Nc1cc(F)c(OCCC[Si](C)(C)C)cc1C` [compound 64]: 100%, 100% and 100%.
For `CCN(C)C(=S)Nc1cc(Cl)c(OCCCC(C)C)cc1C` [compound 114], in that order: 99%, 100% and 100%.
The matching figures for `Cc1cc(OCCCC(C)(C)C)c(C)cc1NC(=S)N(C)C` [compound 192]: 99%, 100% and 100%.
`Cc1cc(OCCC(C)(C)C)c(C)cc1N=CN(C)C` [Compound 12]: the “Test A disease control rating (100 = 100% disease control, 0 = no disease control relative to the controls)” value in experiment [1] came out at 97%. For the same compound, in the experiment on Puccinia recondita, the “Test B disease control rating (100 = 100% disease control, 0 = no disease control relative to the controls)” value amounted to 100%. For the same compound, in the experiment with Septoria nodorum, the “Test C disease control rating (100 = 100% disease control, 0 = no disease control relative to the controls)” value stood at 80%.
The matching figures for `CCN(C)C(=S)Nc1cc(C)c(OCCCC(C)(C)C)cc1C` [compound 194]: 99%, 100% and 100%.
As to `CCCC(CCC)Oc1cc(C)c(N=CN(C)C)cc1C` [Compound 36], the “Test A disease control rating (100 = 100% disease control, 0 = no disease control relative to the controls)” value in experiment [1] is 88%. Further, the “Test B disease control rating (100 = 100% disease control, 0 = no disease control relative to the controls)” value in the experiment on Puccinia recondita amounted to 100%. In addition, the “Test C disease control rating (100 = 100% disease control, 0 = no disease control relative to the controls)” value in the experiment with Septoria nodorum amounted to 0%.
Regarding `Cc1cc(NC(=S)N(C)C)c(C)c(Cl)c1OCCC[Si](C)(C)C` [compound 133], the “Test A disease control rating (100 = 100% disease control, 0 = no disease control relative to the controls)” value in experiment [1] is on record as 99%. Besides, in the experiment on Puccinia recondita, the “Test B disease control rating (100 = 100% disease control, 0 = no disease control relative to the controls)” value is listed as 85%. The “Test C disease control rating (100 = 100% disease control, 0 = no disease control relative to the controls)” value with Septoria nodorum is on record as 53%.
